Results: patent US20190134005A1 (BioMarin Pharmaceutical Inc., priority 2016, published 2019)
pIC50: −log10 of the molar value.

Each molecule was assayed against T1, human CGT (Homo sapiens, UniProt Q16880) (assay: Assay 1: CGT Enzymatic Assay (RapidFire/MS/MS, 0.01% Tween 80)). Conditions: Table 1, Compounds of Formula (I) and Formula (II); CGT enzymatic assay, C6-NBD-dihydro-galactosylceramide readout; read-out: IC50.
T1 sequence (Q16880 21-541): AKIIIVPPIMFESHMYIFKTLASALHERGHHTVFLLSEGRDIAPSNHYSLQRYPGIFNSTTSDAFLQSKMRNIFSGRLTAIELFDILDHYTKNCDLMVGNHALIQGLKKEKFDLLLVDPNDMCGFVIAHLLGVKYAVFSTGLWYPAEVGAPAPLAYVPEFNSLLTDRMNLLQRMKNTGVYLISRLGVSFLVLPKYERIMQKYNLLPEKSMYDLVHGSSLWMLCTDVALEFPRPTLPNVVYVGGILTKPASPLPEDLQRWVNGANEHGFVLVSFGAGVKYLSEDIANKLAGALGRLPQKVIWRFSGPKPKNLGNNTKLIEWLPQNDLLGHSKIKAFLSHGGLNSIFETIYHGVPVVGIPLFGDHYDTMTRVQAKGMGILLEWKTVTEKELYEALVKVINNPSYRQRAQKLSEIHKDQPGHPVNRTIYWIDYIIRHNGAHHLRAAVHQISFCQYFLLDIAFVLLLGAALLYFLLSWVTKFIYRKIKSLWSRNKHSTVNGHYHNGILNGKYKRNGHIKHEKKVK
Assay type: biochemical

pIC50	SMILES
> 6.00	CCCC1(C)N(c2ccc(Cl)cc2)C(=O)N(c2ccc(Cl)cc2)C1(O)c1cccc(C#N)c1 (centres unmarked) [Compound 291, 3-(1,3-bis(4-chlorophenyl)-4-hydroxy-5-methyl-2-oxo-5-propylimidazolidin-4-yl)benzonitrile]
> 6.00	O=C1N(c2ccc(C(F)(F)F)cc2)C2(COC2)C(O)(c2cccc(OC(F)(F)F)c2)N1c1ccc(C(F)(F)F)cc1 (centres unmarked) [Compound 302, 8-hydroxy-8-(3-(trifluoromethoxy)phenyl)-5,7-bis(4-(trifluoromethyl)phenyl)-2-oxa-5,7-diazaspiro[3.4]octan-6-one]
> 6.00	Cc1ccc(N2C(=O)N(c3ccc(Cl)cc3)C(O)(c3cccc(OC(F)(F)F)c3)C2(C)C)cc1 (centres unmarked) [Example 318, 1-(4-chlorophenyl)-5-hydroxy-4,4-dimethyl-3-(p-tolyl)-5-(3-(trifluoromethoxy)phenyl)imidazolidin-2-one]
5.00 to 6.00	COc1ccc(N2C(=O)N(c3ccc(OC)cc3)C(O)(c3cccc(OC(F)(F)F)c3)[C@@H]2C(C)C)cc1 (stereo partly drawn) [Example 329-1, (5S)-4-hydroxy-5-isopropyl-1,3-bis(4-methoxyphenyl)-4-(3-(trifluoromethoxy)phenyl)imidazolidin-2-one]
> 6.00	COc1ccc(N2C(=O)N(c3ccc(OC)cc3)C(O)(c3cccc(C#N)c3)C2C(C)C)cc1 (centres unmarked) [Example 330, 3-(4-hydroxy-5-isopropyl-1,3-bis(4-methoxyphenyl)-2-oxoimidazolidin-4-yl)benzonitrile]

Same assay, conditions: Table 1, Compounds of Formula (I) and Formula (II); CGT enzymatic assay; read-out: IC50

SMILES	pIC50
COC(=O)C1(O)[C@H](C)N(c2ccc(Br)cc2)C(=O)N1c1ccc(Br)cc1 (single isomer, unassigned) [Compound 84-1]	< 4.30
O=C1N(c2ccc(Br)cc2)C(=O)C(O)(c2ccc(OC3CCC3)cc2)N1c1ccc(Br)cc1 (centres unmarked) [Example 174, 1,3-bis(4-bromophenyl)-5-(4-cyclobutoxyphenyl)-5-hydroxyimidazolidine-2,4-dione]	< 4.30
C[C@]1(c2ccccc2)C(O)N(c2ccc(Cl)cc2)C(=O)N1c1ccc(Cl)cc1 (single isomer, unassigned) [Example 223-1]	4.30 to 5.00
CCC1N(c2ccc(Br)cc2)C(=O)N(c2ccc(Br)cc2)C1(O)c1ccccc1 (centres unmarked) [Example 25, 1,3-bis(4-bromophenyl)-5-ethyl-4-hydroxy-4-phenylimidazolidin-2-one]	> 6.00
CCCCCCCCC1(O)C(=O)N(c2ccc(Br)cc2)C(=O)N1c1ccc(Br)cc1 (centres unmarked) [Example 199, 1,3-bis(4-bromophenyl)-5-hydroxy-5-octylimidazolidine-2,4-dione]	< 4.30
O=C1N(c2ccc(Br)cc2)C(=O)C(O)(c2ccc(Cl)s2)N1c1ccc(Br)cc1 (centres unmarked) [Example 197, 1,3-bis(4-bromophenyl)-5-(5-chlorothiophen-2-yl)-5-hydroxyimidazolidine-2,4-dione]	4.30 to 5.00
C[C@H]1N(c2ccc(Br)cc2)C(=O)N(c2ccc(Br)cc2)C1(O)c1cccs1 (some centres unmarked) [Example 49-2]	5.00 to 6.00

Further lines, results first:

pIC50	SMILES
> 6.00	CC[C@@H]1N(c2ccc(Br)cc2)C(=O)N(c2ccc(Br)cc2)C1(O)c1cccc(C(F)(F)F)c1 (stereo partly drawn) [Compound 67-1, (5S)-1,3-bis(4-bromophenyl)-5-ethyl-4-hydroxy-4-(3-(trifluoromethyl)phenyl)imidazolidin-2-one]
> 6.00	CC1N(c2ccccc2)C(=O)N(c2ccc(Br)cc2)C1(O)c1cccc(OC(F)(F)F)c1 (centres unmarked) [Example 229, 3-(4-bromophenyl)-4-hydroxy-5-methyl-1-phenyl-4-(3-(trifluoromethoxy)phenyl)imidazolidin-2-one]
5.00 to 6.00	Cc1cc(C)cc(C2(O)[C@@H](C)N(c3ccc(Br)cc3)C(=O)N2c2ccc(Br)cc2)c1 (some centres unmarked) [Example 42-2]
> 6.00	CCCC1N(c2ccc(Br)cc2)C(=O)N(c2ccc(Br)cc2)C1(O)c1cccc(CC)c1 (centres unmarked) [Compound 88, 1,3-bis(4-bromophenyl)-4-(3-ethylphenyl)-4-hydroxy-5-propylimidazolidin-2-one]
> 6.00	CCC[C@@H]1N(c2ccc(Cl)cc2)C(=O)N(c2ccc(Cl)cc2)C1(O)c1cccc(OC(F)(F)F)c1 (stereo partly drawn) [Compound 91-1, (5S)-1,3-bis(4-chlorophenyl)-4-hydroxy-5-propyl-4-(3-(trifluoromethoxy)phenyl)imidazolidin-2-one]
> 6.00	C[C@@]1(c2ccccc2)C(O)N(c2ccc(Cl)cc2)C(=O)N1c1ccc(Cl)cc1 (single isomer, unassigned) [Example 223-2]
> 6.00	CC1(C(F)(F)F)N(c2ccc(Cl)cc2)C(=O)N(c2ccc(Cl)cc2)C1(O)c1cccc(OC(F)(F)F)c1 (centres unmarked) [Example 159, 1,3-bis(4-chlorophenyl)-4-hydroxy-5-methyl-4-(3-(trifluoromethoxy)phenyl)-5-(trifluoromethyl)imidazolidin-2-one]
> 6.00	CN(C)CC1N(c2ccc(Cl)cc2)C(=O)N(c2ccc(Cl)cc2)C1(O)c1cccc(OC(F)(F)F)c1 (centres unmarked) [Example 166, 1,3-bis(4-chlorophenyl)-5-((dimethylamino)methyl)-4-hydroxy-4-(3-(trifluoromethoxy)phenyl)imidazolidin-2-one]
> 6.00	C#Cc1cccc(C2(O)CN(c3ccc(Cl)cc3)C(=O)N2c2ccc(Cl)cc2)c1 (centres unmarked) [Compound 60, 1,3-bis(4-chlorophenyl)-4-(3-ethynylphenyl)-4-hydroxyimidazolidin-2-one]
> 6.00	CCC[C@H]1N(c2ccc(Br)cc2)C(=O)N(c2ccc(Br)cc2)C1(O)c1cccc(OC(F)(F)F)c1 (stereo partly drawn) [Compound 112-2, (5R)-1,3-bis(4-bromophenyl)-4-hydroxy-5-propyl-4-(3-(trifluoromethoxy)phenyl)imidazolidin-2-one]
> 6.00	Cc1cccc(C2(O)[C@@H](C)N(c3ccc(Br)cc3)C(=O)N2c2ccc(Br)cc2)c1 (some centres unmarked) [Example 29-2]
> 6.00	CCc1cccc(C2(O)[C@@H](C)N(c3ccc(Br)cc3)C(=O)N2c2ccc(Br)cc2)c1 (stereo partly drawn) [Compound 68-2, (5R)-1,3-bis(4-bromophenyl)-4-(3-ethylphenyl)-4-hydroxy-5-methylimidazolidin-2-one]
> 6.00	O=C1N(c2ccc(Cl)cc2)C2(CC(F)C2)C(O)(c2cccc(OC(F)(F)F)c2)N1c1ccc(Cl)cc1 (centres unmarked) [Compound 240, 5,7-bis(4-chlorophenyl)-2-fluoro-8-hydroxy-8-(3-(trifluoromethoxy)phenyl)-5,7-diazaspiro[3.4]octan-6-one]
> 6.00	CCc1cccc(C2(O)C(C)N(c3ccc(Br)cc3)C(=O)N2c2ccc(Br)cc2)c1 (centres unmarked) [Compound 68, 1,3-bis(4-bromophenyl)-4-(3-ethylphenyl)-4-hydroxy-5-methylimidazolidin-2-one]
> 6.00	CC1(C)N(c2ccc(Cl)cc2)C(=O)N(c2ccc(Cl)cc2)C1(O)c1cccc(C(F)(F)F)c1 (centres unmarked) [Compound 134, 1,3-bis(4-chlorophenyl)-4-hydroxy-5,5-dimethyl-4-(3-(trifluoromethyl)phenyl)imidazolidin-2-one]
> 6.00	N#Cc1cccc(C2(O)[C@H](C3CCC3)N(c3ccc(Cl)cc3)C(=O)N2c2ccc(Cl)cc2)c1 (stereo partly drawn) [Example 194-1, 3-((5S)-1,3-bis(4-chlorophenyl)-5-cyclobutyl-4-hydroxy-2-oxoimidazolidin-4-yl)benzonitrile]
> 6.00	CC1(C)N(c2ccc(Cl)cc2)C(=O)N(c2ccc(Cl)cc2)C1(O)c1cccc(C#N)c1 (centres unmarked) [Compound 138, 3-(1,3-bis(4-chlorophenyl)-4-hydroxy-5,5-dimethyl-2-oxoimidazolidin-4-yl)benzonitrile]
